Results reported in ChEMBL document CHEMBL5614409, “Discovery of potent HIV-1 NNRTIs by CuAAC click-chemistry-based miniaturized synthesis, rapid screening and structure optimization” (Eur J Med Chem, 2024).

molecular target: Human immunodeficiency virus type 1 reverse transcriptase (Human immunodeficiency virus 1) (UniProt Q72547); experiment: Inhibition of HIV-1 reverse transcriptase incubated for 2 hrs in presence of template and viral nucleotides by ELISA relative to control; design: concentration or dose not given beside the values; conditions: concentration not given here

Row | SMILES | inhibition
1 | Cc1cc(C#N)cc(C)c1Oc1nc(Nc2ccc(C#N)cc2)nc(N)c1Br [ETRAVIRINE] | 52.3%
2 | Cc1cc(C#N)cc(C)c1Oc1ccnc(NCCc2cn(Cc3ccc(Cl)cc3)nn2)n1 | 51.3%
3 | COC(=O)Cn1cc(CCNc2nccc(Oc3c(C)cc(/C=C/C#N)cc3C)n2)nn1 | 65.3%
4 | Cc1cc(C#N)cc(C)c1Oc1ccnc(NC2CCN(Cc3cn(CC(=O)Nc4ccc(S(C)(=O)=O)cc4)nn3)CC2)n1 | 93.8%
5 | Cc1ccccc1Cn1cc(CCNc2nccc(Oc3c(C)cc(C#N)cc3C)n2)nn1 | 55%
6 | Cc1cc(C#N)cc(C)c1Oc1ccnc(NC2CCN(Cc3cn(Cc4ccc(B(O)O)cc4)nn3)CC2)n1 | 89.8%
7 | Cc1cc(/C=C/C#N)cc(C)c1Oc1ccnc(NCCc2cn(Cc3ccc(S(N)(=O)=O)cc3)nn2)n1 | 69.2%

test system: Human immunodeficiency virus 1; experiment: Antiviral activity against HIV1 IIIB infected in MT4 cells assessed as reduction in virus induced cytopathic effect incubated for 5 days by MTT method; assay type: functional, organism-based; conditions: Human immunodeficiency virus 1, IIIB, MT4, 120 h

Row | SMILES | EC50
8 | Cc1cc(C#N)cc(C)c1Oc1ccnc(NC2CCN(Cc3cn(CC(=O)Nc4ccc(S(C)(=O)=O)cc4)nn3)CC2)n1 | 5 nM

test system: not listed separately; experiment: Cytotoxicity against human MT4 cells assessed as reduction in cell viability incubated for 5 days by MTT method; assay type: toxicity, cell-based; conditions: time 5 day

Row | SMILES | CC50 at 120 h
9 | Cc1cc(C#N)cc(C)c1Oc1nc(Nc2ccc(C#N)cc2)nc(N)c1Br [ETRAVIRINE] | > 4600 nM
10 | Cc1cc(C#N)cc(C)c1Oc1ccnc(NC2CCN(Cc3cn(CC(=O)Nc4ccc(S(C)(=O)=O)cc4)nn3)CC2)n1 | 12200 nM

test system: not listed separately; experiment: Selectivity index, ratio of CC50 for human MT4 cells to EC50 for antiviral activity against HIV1 IIIB infected in MT4 cells; assay type: toxicity, cell-based; conditions: read-out: Ratio CC50/EC50

Row | SMILES | selectivity ratio
11 | Cc1cc(C#N)cc(C)c1Oc1nc(Nc2ccc(C#N)cc2)nc(N)c1Br [ETRAVIRINE] | > 1090
12 | Cc1cc(C#N)cc(C)c1Oc1ccnc(NC2CCN(Cc3cn(CC(=O)Nc4ccc(S(C)(=O)=O)cc4)nn3)CC2)n1 | 2690

test system: Human immunodeficiency virus 1; experiment: Antiviral activity against HIV1 IIIB harboring L100I mutant infected in MT4 cells assessed as reduction in virus induced cytopathic effect incubated for 5 days by MTT method; assay type: functional, organism-based; conditions: Human immunodeficiency virus 1, IIIB, MT4, 120 h

Row | SMILES | EC50
13 | Cc1cc(C#N)cc(C)c1Oc1nc(Nc2ccc(C#N)cc2)nc(N)c1Br [ETRAVIRINE] | 7 nM
14 | Cc1cc(C#N)cc(C)c1Oc1ccnc(NC2CCN(Cc3cn(CC(=O)Nc4ccc(S(C)(=O)=O)cc4)nn3)CC2)n1 | 228 nM

test system: Human immunodeficiency virus 1; experiment: Antiviral activity against HIV1 IIIB harboring K103 N mutant infected in MT4 cells assessed as reduction in virus induced cytopathic effect incubated for 5 days by MTT method; assay type: functional, organism-based; conditions: Human immunodeficiency virus 1, IIIB, MT4, 120 h

Row | SMILES | EC50
15 | Cc1cc(C#N)cc(C)c1Oc1nc(Nc2ccc(C#N)cc2)nc(N)c1Br [ETRAVIRINE] | 3 nM
16 | Cc1cc(C#N)cc(C)c1Oc1ccnc(NC2CCN(Cc3cn(CC(=O)Nc4ccc(S(C)(=O)=O)cc4)nn3)CC2)n1 | 16 nM

test system: Human immunodeficiency virus 1; experiment: Antiviral activity against HIV1 IIIB harboring Y181C mutant infected in MT4 cells assessed as reduction in virus induced cytopathic effect incubated for 5 days by MTT method; assay type: functional, organism-based; conditions: Human immunodeficiency virus 1, IIIB, MT4, 120 h

Row | SMILES | EC50
17 | Cc1cc(C#N)cc(C)c1Oc1nc(Nc2ccc(C#N)cc2)nc(N)c1Br [ETRAVIRINE] | 12 nM
18 | Cc1cc(C#N)cc(C)c1Oc1ccnc(NC2CCN(Cc3cn(CC(=O)Nc4ccc(S(C)(=O)=O)cc4)nn3)CC2)n1 | 34 nM

test system: Human immunodeficiency virus 1; experiment: Antiviral activity against HIV1 IIIB harboring Y188L mutant infected in MT4 cells assessed as reduction in virus induced cytopathic effect incubated for 5 days by MTT method; assay type: functional, organism-based; conditions: Human immunodeficiency virus 1, IIIB, MT4, 120 h

Row | SMILES | EC50
19 | Cc1cc(C#N)cc(C)c1Oc1ccnc(NC2CCN(Cc3cn(CC(=O)Nc4ccc(S(C)(=O)=O)cc4)nn3)CC2)n1 | 260 nM

test system: Human immunodeficiency virus 1; experiment: Antiviral activity against HIV1 IIIB harboring E138K mutant infected in MT4 cells assessed as reduction in virus induced cytopathic effect incubated for 5 days by MTT method; assay type: functional, organism-based; conditions: Human immunodeficiency virus 1, IIIB, MT4, 120 h

Row | SMILES | EC50
20 | Cc1cc(C#N)cc(C)c1Oc1nc(Nc2ccc(C#N)cc2)nc(N)c1Br [ETRAVIRINE] | 4 nM
21 | Cc1cc(C#N)cc(C)c1Oc1ccnc(NC2CCN(Cc3cn(CC(=O)Nc4ccc(S(C)(=O)=O)cc4)nn3)CC2)n1 | 31 nM

test system: Human immunodeficiency virus 1; experiment: Antiviral activity against HIV1 IIIB harboring F227L/V106A double mutant infected in MT4 cells assessed as reduction in virus induced cytopathic effect incubated for 5 days by MTT method; assay type: functional, organism-based; conditions: Human immunodeficiency virus 1, IIIB, MT4, 120 h

Row | SMILES | EC50
22 | Cc1cc(C#N)cc(C)c1Oc1ccnc(NC2CCN(Cc3cn(CC(=O)Nc4ccc(S(C)(=O)=O)cc4)nn3)CC2)n1 | 2880 nM

test system: Human immunodeficiency virus 1; experiment: Antiviral activity against HIV1 IIIB harboring RES056 mutant infected in MT4 cells assessed as reduction in virus induced cytopathic effect incubated for 5 days by MTT method; assay type: functional, organism-based; conditions: Human immunodeficiency virus 1, IIIB, MT4, 120 h

Row | SMILES | EC50
23 | Cc1cc(C#N)cc(C)c1Oc1nc(Nc2ccc(C#N)cc2)nc(N)c1Br [ETRAVIRINE] | 38 nM
24 | Cc1cc(C#N)cc(C)c1Oc1ccnc(NC2CCN(Cc3cn(CC(=O)Nc4ccc(S(C)(=O)=O)cc4)nn3)CC2)n1 | 3410 nM
